{"source": "paper PMC7834858", "about": "(Antiviral Research, 2020)", "key": {"SARS-CoV-2 3CLpro": {"molecular_target": "SARS-CoV-2 3CLpro (Severe acute respiratory syndrome coronavirus 2, UniProt P0DTD1)", "type": "biochemical"}, "[1]": {"system": "human beta-coronavirus OC43–CoV", "assay": "OC43-CoV cytopathic effect antiviral assay in HeLa cells", "type": "cell-based"}, "[2]": {"system": "human beta-coronavirus OC43–CoV", "assay": "OC43-CoV cytopathic effect antiviral assay in MRC-5 cells", "type": "cell-based", "details": "MRC5, 120 h, read-out: OC-43 MRC-5 Cells EC50"}, "SARS-CoV-2": {"system": "SARS-CoV-2", "type": "cell-based"}, "COVID-19": {"system": "COVID-19", "details": "COVID-19 hospitalized patients; ref Beigel et al., 2020; cited from earlier work"}, "[3]": {"details": "no reducing agent vs 1 mM GSH vs 1 mM DTT"}}, "note": "Where two headings read alike, the source gives them in different places.", "data": [{"smiles": "CCN(CC)C(=S)SSC(=S)N(CC)CC", "note": "[Disulfiram]", "values": [{"measurement": "Concentrations at which SARS-CoV-2 3CLpro was inhibited", "setting": "SARS-CoV-2 3CLpro; absence of reducing agent only", "value": "> 30", "unit": "µM"}, {"measurement": "Effect of reducing conditions on inhibition potency", "setting": "SARS-CoV-2 3CLpro; [3]", "value": "impacted by the reducing condition"}, {"measurement": "Inhibition of SARS-CoV-2 3CLpro activity in SAMDI-MS assay (in words)", "setting": "SARS-CoV-2 3CLpro; reducing conditions (DTT)", "value": "did not inhibit"}, {"measurement": "Antiviral activity against OC43 (in words)", "setting": "[1]", "value": "inactive"}, {"measurement": "EC50", "setting": "[2]", "value": "> 100", "unit": "µM"}, {"measurement": "Inhibition of SARS-CoV-2 replication (in words)", "setting": "SARS-CoV-2", "value": "did not inhibit SARS-CoV-2 replication"}]}, {"smiles": "O=c1c2ccccc2[se]n1-c1ccccc1", "note": "[Ebselen]", "values": [{"measurement": "Concentrations at which SARS-CoV-2 3CLpro was inhibited", "setting": "SARS-CoV-2 3CLpro", "value": "> 30", "unit": "µM"}, {"measurement": "Effect of reducing conditions on inhibition potency", "setting": "SARS-CoV-2 3CLpro", "value": "impacted by the reducing condition"}, {"measurement": "Inhibition of SARS-CoV-2 3CLpro activity in SAMDI-MS assay (in words)", "setting": "SARS-CoV-2 3CLpro", "value": "did not inhibit"}, {"measurement": "Antiviral activity against OC43 (in words)", "setting": "[1]", "value": "inactive"}, {"measurement": "EC50", "setting": "[2]", "value": "> 100", "unit": "µM"}, {"measurement": "Inhibition of SARS-CoV-2 replication (in words)", "setting": "SARS-CoV-2", "value": "did not inhibit SARS-CoV-2 replication"}, {"measurement": "Cytotoxicity (in words)", "setting": "HeLa cells", "value": "cytotoxic"}, {"measurement": "Toxicity to Vero cells (in words)", "setting": "VeroE6 cells", "value": "toxic to Vero cells"}]}, {"smiles": "CCC(CC)COC(=O)[C@H](C)N[P@](=O)(OC[C@H]1O[C@@](C#N)(c2ccc3c(N)ncnn23)[C@H](O)[C@@H]1O)Oc1ccccc1", "note": "[Remdesivir]", "values": [{"measurement": "EC50", "setting": "[2]", "value": 0.21, "unit": "µM"}, {"measurement": "Effect on mortality", "setting": "COVID-19", "value": "no significant effect"}]}, {"smiles": "CC(C)=CC[C@@H](O)C1=CC(=O)c2c(O)ccc(O)c2C1=O", "note": "[Shikonin]", "values": [{"measurement": "Effect of reducing conditions on inhibition potency", "setting": "SARS-CoV-2 3CLpro; [3]", "value": "marked loss of inhibition in the presence of DTT or GSH"}, {"measurement": "Inhibition of SARS-CoV-2 3CLpro activity in SAMDI-MS assay (in words)", "setting": "SARS-CoV-2 3CLpro; reducing conditions (DTT)", "value": "failed to inhibit"}, {"measurement": "Inhibition of SARS-CoV-2 3CLpro activity in SAMDI-MS assay (in words)", "setting": "SARS-CoV-2 3CLpro; reducing conditions (DTT), listed as shikonin", "value": "did not inhibit"}, {"measurement": "Antiviral activity against OC43 (in words)", "setting": "[1]", "value": "inactive"}, {"measurement": "EC50", "setting": "[2]", "value": "> 100", "unit": "µM"}, {"measurement": "Inhibition of SARS-CoV-2 replication (in words)", "setting": "SARS-CoV-2", "value": "did not inhibit SARS-CoV-2 replication"}, {"measurement": "Cytotoxicity (in words)", "setting": "HeLa cells", "value": "cytotoxic"}, {"measurement": "Toxicity to Vero cells (in words)", "setting": "VeroE6 cells", "value": "toxic to Vero cells"}]}]}
